Source: US8455523B2, “Compositions and methods for treating hyperlipidemias” (The Research Foundation of State University of New York, priority 2010, dated 2013)

Tests used:
[1] = target: T1, MTP (Mus musculus, UniProt O08601); assay: Determination of MTP activity in tissues (liver homogenates of treated mice); assay type: in vivo; settings: for MTP activity (liver): C57Bl/6J, MTPi 1 mg/kg/day oral one week, lovastatin 50 or pioglitazone 25 mg/kg/day added to MTPi; for MTP specific activity (liver): WD fed C57Bl/6J, drug alone, one week
T1 construct: small pieces (0.1 g) of liver and ˜1-cm segments of proximal small intestine were homogenized; from tissue; host or cells: mouse liver (C57BL/6J; Reversa mice in some experiments); supernatant of ultracentrifuged homogenate
T1 sequence (O08601 22-894): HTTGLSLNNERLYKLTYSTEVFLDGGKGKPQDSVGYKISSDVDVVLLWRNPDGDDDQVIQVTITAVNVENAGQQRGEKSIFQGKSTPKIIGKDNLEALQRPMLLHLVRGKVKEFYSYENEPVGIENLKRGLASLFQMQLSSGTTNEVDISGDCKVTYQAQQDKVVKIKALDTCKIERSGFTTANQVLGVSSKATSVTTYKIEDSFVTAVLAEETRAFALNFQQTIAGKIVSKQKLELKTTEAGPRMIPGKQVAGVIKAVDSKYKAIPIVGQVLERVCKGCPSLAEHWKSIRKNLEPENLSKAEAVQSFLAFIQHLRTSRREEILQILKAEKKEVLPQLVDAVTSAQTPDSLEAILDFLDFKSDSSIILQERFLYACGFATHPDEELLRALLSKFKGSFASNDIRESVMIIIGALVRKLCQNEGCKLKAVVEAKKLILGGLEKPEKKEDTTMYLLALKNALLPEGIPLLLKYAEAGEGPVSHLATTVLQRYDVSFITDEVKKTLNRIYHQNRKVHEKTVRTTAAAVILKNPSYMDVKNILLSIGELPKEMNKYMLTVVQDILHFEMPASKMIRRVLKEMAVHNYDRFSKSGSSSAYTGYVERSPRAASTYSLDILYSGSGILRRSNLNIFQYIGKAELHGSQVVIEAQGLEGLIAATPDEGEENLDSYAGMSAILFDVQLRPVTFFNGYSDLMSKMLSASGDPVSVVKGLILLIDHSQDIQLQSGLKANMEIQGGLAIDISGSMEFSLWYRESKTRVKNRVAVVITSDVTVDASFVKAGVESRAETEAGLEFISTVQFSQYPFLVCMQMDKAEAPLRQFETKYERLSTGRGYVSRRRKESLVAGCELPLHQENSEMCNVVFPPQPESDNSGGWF
T1 sequence (P09103 21-509 partner limits assumed): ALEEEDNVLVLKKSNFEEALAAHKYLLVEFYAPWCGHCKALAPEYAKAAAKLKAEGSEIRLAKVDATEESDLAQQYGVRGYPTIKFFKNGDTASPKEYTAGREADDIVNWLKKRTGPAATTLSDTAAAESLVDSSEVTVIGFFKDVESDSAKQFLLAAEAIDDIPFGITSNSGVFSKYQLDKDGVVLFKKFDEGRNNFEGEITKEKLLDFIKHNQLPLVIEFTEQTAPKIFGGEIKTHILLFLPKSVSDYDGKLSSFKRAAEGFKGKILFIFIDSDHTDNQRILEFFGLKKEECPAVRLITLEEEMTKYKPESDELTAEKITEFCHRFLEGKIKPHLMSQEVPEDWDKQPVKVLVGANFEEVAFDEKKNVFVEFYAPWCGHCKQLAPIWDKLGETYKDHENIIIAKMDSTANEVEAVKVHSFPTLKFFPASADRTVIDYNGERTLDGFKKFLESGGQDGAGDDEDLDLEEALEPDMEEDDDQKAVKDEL
Procedure: After extensive washes with ice-cold PBS, small pieces (0.1 g) of liver and ˜1-cm segments of proximal small intestine were homogenized with 1 ml of ice-cold 1 mM Tris-HCl, pH 7.6, 1 mM EGTA, and 1 mM MgCl2 buffer in a glass homogenizer. The homogenates were centrifuged (SW55 Ti rotor, 50,000 rpm, 10° C., 1 h), and supernatants were used for MTP assay as described before (41; 42) using a kit (Chylos, Inc.).

[2] = test system: hepatic mRNA of ER stress, inflammation and lipid metabolism genes; assay: Hepatic mRNA quantification (qPCR, XBP-1 splicing) in treated mice; assay type: in vivo; settings: liver; for Bip, Ire1α, CHOP, PERK and ATF6 mRNA levels: BMS MTPi one week, lovastatin or pioglitazone with MTPi
Text: FIGS. 6a and 6b. Liver samples from FIG. 16 were used to isolate total mRNA and to quantify expression of different candidate genes. Statistical analyses were as described in FIGS. 16-17.
FIGS. 9a and 9b. C57B/6J mice were fed a western diet for 8 weeks and then treated with MTP inhibitor and other indicated compounds for 8 days as described in FIG. 16. Liver samples were used to isolate mRNA and to quantify mRNA levels with different candidate genes. Stars on MTPi group represent comparison with the control group.
FIG. 16. Age matched wildtype C57/BL6J animals chow fed animals were treated with DMSO (control) or MTP inhibitor (MTPi) for one week. Age matched wildtype C57/BL6J were fed WD for one month and were administered MTPi, Lovastatin, (Lova), Pioglitazone (Pio) or 4-phenylbutyric acid (PBA) every day for one week. All drugs were administered by oral gavage. Animals were sacrificed on day 7 and livers were harvested. mRNA was extracted and subjected to qPCR analysis. * represent comparison DMSO control; # represent comparisons to WD control; @ represent comparisons to WD MTP inhibitor treated animals.
mRNA quantifications and primers used: Total RNA from tissues and cells were isolated using TriZol™ (Invitrogen). The purity and integrity of RNA were assessed by the A260/A280 ratio and 1% agarose gel electrophoresis, respectively. Only the RNAs with ratios more than 1.7 were used for cDNA synthesis. The first strand cDNA was synthesized using Omniscript RT (Qiagen) kit. Briefly, 2 μg of total RNA, 1 μM random primers (Invitrogen), 0.5 mM dNTP solution, and 0.5 U/μl Omniscript Reverse Transcriptase were incubated at 37° C. for 1 h in 20 μl of RT buffer and the reaction was terminated by incubating at 95° C. for 5 minutes. Each reaction of quantitative RT-PCR was carried out in a volume of 20 μl consisting of 5 μl cDNA sample (1:100 dilution of the first strand cDNA sample) and 15 μl of PCR master mix solution containing 1×PCR reaction buffer, 6 mM MgCl2, 200 nM primer pair, 0.025 U/μl HotStar Gold™ DNA polymerase, 200 μM dNTP solution, and 0.3 μl SYBR Green I solution (gPCR™ Core Kit for SYBR Green I, Eurogentec). The PCR was carried out by incubating the reaction mixture first for 10 minute at 95° C. followed by 40 cycles of 15 sec incubations at 95° C. and 1 min at 60° C. in the ABI 7000 SDS PCR machine. The data were analyzed using ΔΔCT method according to manufacturer's instruction and presented as arbitrary units. The primers used in this study were designed with the PrimerExpress 3.0 software (Applied Biosystems, CA) and are presented as Table 1.

[3] = WD 8 weeks, CP-346086 1 week ± lovastatin or WY14643
[4] = WD five weeks, treatment in last week, MTPi ± pioglitazone or lovastatin

Structure (SMILES) | hepatic MTP activity [1, 3] | Ire1α mRNA and spliced form of XBP-1 ([2]; WD 8 weeks, CP-346086 ± lovastatin or WY14643, 8 days) | MTP activity (liver) [1] | MTP specific activity (liver) [1] | hepatic MTP activity [1, 4] | Bip, Ire1α, CHOP, PERK and ATF6 mRNA levels [2]
Cc1cccc(Nc2cc(Cl)nc(SCC(=O)O)n2)c1C [WY14643] | no further effect | no effect | – | – | – | –
CC[C@H](C)C(=O)O[C@H]1C[C@@H](C)C=C2C=C[C@H](C)[C@H](CC[C@@H]3C[C@@H](O)CC(=O)O3)[C@H]21 [lovastatin] | no further effect | – | not further affected | no effect | unaffected | significantly lower
CCc1ccc(CCOc2ccc(CC3SC(=O)NC3=O)cc2)nc1 (racemic) [pioglitazone, (RS)-5-(4-[2-(5-ethylpyridin-2-yl)ethoxy]benzyl)thiazolidine-2,4-dione] | – | – | not further affected | no effect | unaffected | significantly lower
